From article PMC7238120, “Strong and Selective Inhibitory Effects of the Biflavonoid Selamariscina A against CYP2C8 and CYP2C9 Enzyme Activities in Human Liver Microsomes” (Pharmaceutics, 2020)

Tests used:
Format in all cases: in vitro ADME
[1] = target: T1, UGT1A6 (Homo sapiens, UniProt P19224); assay: Inhibition of UGT1A6 (N-acetylserotonin glucuronidation) in human liver microsomes; settings: substrate N-acetylserotonin; HLMs; average ± standard error
T1 construct: tissue XenoTech XTreme 200; host or cells: pooled human liver microsomes
Description: The ability of selamariscina A to inhibit the metabolism of six UGT enzyme probe substrates was evaluated using previously developed methods with minor modifications. The microsomal incubation was performed by dividing the non-interactive substrate cocktail sets (set A included SN-38 for UGT1A1, CDCA for UGT1A3 and TFP for UGT1A4 while set B included N-SER for UGT1A6, MPA for UGT1A9 and NX for UGT2B7) (Table 2). In brief, HLMs (0.25 mg/mL) were activated by incubation in the presence of alamethicin (25 µg/mL) for 15 min on ice. After the addition of UGT probe substrates and inhibitor (0, 0.5, 2, 5, 20 and 50 μM), the incubation mixtures were pre-incubated at 37 °C for 5 min. […] After centrifugation at 18,000 g (5 min, 4 °C), aliquots of supernatants were analyzed by LC–MS/MS. […]
All metabolites and the IS were separated on a Kinetex XB-C18 column (100 × 2.10 mm, 2.6 μm, 100 Å; Phenomenex, Torrance, CA, USA) and analyzed using a Shimadzu LCMS 8060 triple-quadrupole mass spectrometer coupled with a Nexera X2 ultra high-performance liquid chromatography system (Shimadzu, Kyoto, Japan) equipped with an electrospray ionization interface. […] Quantitation was conducted in selected reaction monitoring (SRM) modes with the precursor-to-product ion transition for each metabolite (Table 1 and Table 2).
We analyzed the data with Shimadzu LabSolution LC–MS software. […]

[2] = target: T2, CYP2C8 (Homo sapiens, UniProt P10632); assay: Inhibition of CYP2C8-catalyzed rosiglitazone 5-hydroxylation in human liver microsomes; parameters: incubation mixtures containing pooled human liver microsomes (HLMs, XTreme 200, XenoTech); tissue XenoTech XTreme 200; host or cells: pooled human liver microsomes
T2 sequence (P10632 1-490): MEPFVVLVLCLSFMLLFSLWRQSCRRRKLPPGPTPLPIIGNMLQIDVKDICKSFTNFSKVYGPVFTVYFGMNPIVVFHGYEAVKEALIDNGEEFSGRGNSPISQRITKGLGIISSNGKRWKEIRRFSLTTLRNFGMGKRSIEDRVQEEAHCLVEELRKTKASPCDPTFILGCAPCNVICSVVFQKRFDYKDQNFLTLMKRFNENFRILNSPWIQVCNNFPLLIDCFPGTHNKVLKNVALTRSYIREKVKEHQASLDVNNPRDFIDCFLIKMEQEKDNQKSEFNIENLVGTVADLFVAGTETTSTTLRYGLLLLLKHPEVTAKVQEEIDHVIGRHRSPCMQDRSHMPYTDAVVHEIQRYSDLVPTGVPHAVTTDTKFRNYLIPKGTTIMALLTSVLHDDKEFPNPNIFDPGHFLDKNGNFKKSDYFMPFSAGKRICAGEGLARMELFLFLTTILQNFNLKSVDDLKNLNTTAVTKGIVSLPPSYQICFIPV
Description: (§1) We used HLMs to determine the mechanisms and constants (Ki values) for […] A inhibition of CYP1A2, CYP2B6, CYP2C8, CYP2C9 and CYP3A. […] The substrates were used at concentrations approximately near to their respective Km values. […] The other conditions were the same as in the cytochrome P450 inhibition study. […] Phenomenex, Torrance, CA, USA) and analyzed using a Shimadzu LCMS 8060 triple-quadrupole mass spectrometer coupled with a Nexera X2 ultra high-performance liquid chromatography system (Shimadzu, Kyoto, Japan) equipped with an electrospray ionization interface. The mobile phase consisted of 0.1% formic acid in water (A) and 0.1% formic acid in acetonitrile (B). […] The flow rate was 0.2 mL/min. Electrospray ionization was performed in positive-ion mode at 4000 V or in negative-ion mode at -3500 V. The optimum operating conditions were determined as follows: vaporizer temperature, 300 °C; capillary temperature, 350 °C; collision gas (argon) pressure, 1.5 mTorr. Quantitation was conducted in selected reaction monitoring (SRM) modes with the precursor-to-product ion transition for each metabolite (Table 1 and Table 2). We analyzed the data with Shimadzu LabSolution LC-MS software. The IC50 values were calculated by WinNonlin software (Pharsight, Mountain View, CA, USA). […]

[3] = target: CYP2C9 (Homo sapiens, UniProt P11712); assay: Inhibition of CYP2C9-catalyzed tolbutamide 4-hydroxylation in human liver microsomes; parameters: incubation mixtures containing pooled human liver microsomes (HLMs, XTreme 200, XenoTech); tissue XenoTech XTreme 200; host or cells: pooled human liver microsomes; settings: HLMs
Description: as §1

CYP2C9, sequence (P11712 whole entry): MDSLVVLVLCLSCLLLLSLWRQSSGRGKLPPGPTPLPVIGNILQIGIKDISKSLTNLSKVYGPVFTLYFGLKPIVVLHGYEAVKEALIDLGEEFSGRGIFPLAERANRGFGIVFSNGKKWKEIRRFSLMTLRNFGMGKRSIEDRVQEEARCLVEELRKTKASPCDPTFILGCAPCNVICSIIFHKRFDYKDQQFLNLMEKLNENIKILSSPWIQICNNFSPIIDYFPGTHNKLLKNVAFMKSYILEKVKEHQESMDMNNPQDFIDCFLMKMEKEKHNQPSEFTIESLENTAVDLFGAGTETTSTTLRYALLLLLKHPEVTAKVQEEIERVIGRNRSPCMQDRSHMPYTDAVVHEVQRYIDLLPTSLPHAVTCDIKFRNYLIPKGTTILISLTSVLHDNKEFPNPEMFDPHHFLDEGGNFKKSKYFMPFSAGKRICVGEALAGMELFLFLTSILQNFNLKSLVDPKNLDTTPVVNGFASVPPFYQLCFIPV
T1 sequence (P19224 27-532): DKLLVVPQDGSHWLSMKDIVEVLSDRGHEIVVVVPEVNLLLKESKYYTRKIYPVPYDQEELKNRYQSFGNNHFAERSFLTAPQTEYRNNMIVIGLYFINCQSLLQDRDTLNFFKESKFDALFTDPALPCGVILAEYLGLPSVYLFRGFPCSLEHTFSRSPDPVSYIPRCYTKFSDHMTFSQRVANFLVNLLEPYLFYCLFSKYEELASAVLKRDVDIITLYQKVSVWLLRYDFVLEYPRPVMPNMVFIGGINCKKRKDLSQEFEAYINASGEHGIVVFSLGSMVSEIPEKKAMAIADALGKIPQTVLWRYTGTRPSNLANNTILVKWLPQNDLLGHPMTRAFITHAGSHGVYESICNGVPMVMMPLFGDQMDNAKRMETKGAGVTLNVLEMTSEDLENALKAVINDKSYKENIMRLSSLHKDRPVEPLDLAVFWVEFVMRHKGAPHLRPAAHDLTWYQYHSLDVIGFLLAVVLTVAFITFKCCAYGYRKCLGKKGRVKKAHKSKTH

## O=C1CC(c2cc(-c3c(O)ccc4c(=O)cc(-c5ccc(O)cc5)oc34)c(O)cc2O)Oc2cc(O)cc(O)c21 (centres unmarked) [selamariscina A]
[1]
  IC50: 46100 ± 11700 nM
[2]; HLMs, average ± standard error, triplicate
  Ki: 10 ± 3 nM
[2]; microsomes
  Mode of Inhibition, CYP2C8 rosiglitazone: Noncompetitive, partial
[3]
  Mode of Inhibition, CYP2C9 tolbutamide: Noncompetitive
[3]; average ± standard error, triplicate
  Ki: 65 ± 10 nM
